Legend:
[1] = Monitoring of the plasma concentration of 3 octasaccharides in beagle dogs after subcutaneous administration (plasma filtration + anion-exchange HPLC); type: in vivo, male dogs of the beagle breed; details: 0.5 mg/kg each
Procedure: A plasma sample with a volume of between 100 and 1000 μl is withdrawn and, if appropriate, the internal standard is added to the latter.
After homogenization, the resulting solution is introduced into a 30 kD Ultrafree 05 ultrafiltration cartridge (Millipore) rinsed beforehand with 250 μl of water by centrifuging at 10 000 rev/min for 5 minutes. The plasma is introduced into the upper part of the cartridge once or twice, if the amounts to be filtered are greater than 500 μl.
The cartridge is centrifuged at 10 000 rev/min for between 1 and 2 hours and then the filtrate is withdrawn. If appropriate, the second part of the plasma to be filtered is introduced into the upper part of the cartridge and the latter is again centrifuged. The exact amount of plasma introduced will have been weighed. The cartridge is centrifuged until the protein residue in the upper part of the cartridge represents no more than approximately 10% of the initial part.
The filtrate is withdrawn and 210 μl of 3M KCl per ml of plasma filtered are added to the concentrate.
After homogenization, the cartridge is centrifuged at 10 000 rev/min for between 1 and 4 hours. The cartridge is centrifuged until the protein residue in the upper part of the cartridge represents no more than approximately 10% of the initial part.
The second filtrate is withdrawn and 210 μl of 3M KCl per ml of plasma filtered are added a second time to the concentrate.
The third filtrate is withdrawn and 250 μl of water per ml of plasma filtered are added.
The filtrates are combined and diluted 5 fold in water, and the whole is injected directly in anion-exchange HPLC. Immediately before injection, the pH of the injected solution is adjusted to 3 by addition of 1N HCl.
The filtered plasma is analyzed by anion-exchange HPLC.
The columns used are IonPAc As11 columns (Dionex), with a length of 25 cm and an internal diameter of 2 mm. The detector used is a UV spectrophotometer equipped with an array of diodes.
The whole of the […] is injected after adjustment of the pH to 3 by addition of N HCl. The flow rate chosen is 0.22 ml/min; the column temperature is 40° C.
Elution is carried out in gradient mode. The two solutions used are:
Solvent A: NaH2PO4 2.5 mM, brought to pH 2.9 by addition of H3PO4
Solvent B: NaClO4 1N, NaH2PO4 2.5 mM, brought to pH 3.0 by addition of H3PO4
The elution gradient is as follows:
T=0 min: % B=3; T=40 min: % B=60; T=60 min: % B=80
The evolution of a mixture of three octasaccharides in the blood of male dogs of the beagle breed is monitored. These 3 octasaccharides, symbolized ΔIIaIIsIsIs, ΔIsIIaIIsIs and ΔIIaIIsIsIs^1,6-anhydro, are the main affinity octasaccharides of the octasaccharide fractions of Lovenox®.
The mixture is administered subcutaneously to 3 male dogs of the beagle breed at a target dose with regard to each of these 3 constituents of 0.5 mg/kg. The administration solution is a 0.9% NaCl solution of the mixture of the 3 octasaccharides at the target concentration of 0.5 mg/ml. Blood samples of 5 ml are withdrawn at the times 0, 0.25 h, 0.5 h, 1 h, 2 h, 4 h, 6 h, 8 h, 24 h, 30 h and 48 h after administration. The blood samples withdrawn are collected in tubes containing 400 μl of a CTAD (citrate, theophylline, adenosine, dipyridamole) mixture. After homogenization, the solution is centrifuged at 3000 g at 15° C. for 15 min. The plasma supernatant is recovered and stored at −20° C. until use.
For the treatment of the plasma before HPLC injection, approximately 1 ml of plasma is withdrawn and weighed, to which 50 μl of a solution of the internal standard at a concentration of approximately 0.02 g/l are added.
The internal standard is chosen so that it is structurally as close as possible to the products to be analyzed. Its structure is given below.
The tetrasaccharide used makes it possible to correct the potentional influence of the variations in the extraction yield.
The plasma is treated and analyzed by HPLC.

ATIII = ATIII (Homo sapiens, UniProt P01008); assay: Affinity for ATIII; type: binding
Sequence of ATIII (P01008 33-464, species assumed): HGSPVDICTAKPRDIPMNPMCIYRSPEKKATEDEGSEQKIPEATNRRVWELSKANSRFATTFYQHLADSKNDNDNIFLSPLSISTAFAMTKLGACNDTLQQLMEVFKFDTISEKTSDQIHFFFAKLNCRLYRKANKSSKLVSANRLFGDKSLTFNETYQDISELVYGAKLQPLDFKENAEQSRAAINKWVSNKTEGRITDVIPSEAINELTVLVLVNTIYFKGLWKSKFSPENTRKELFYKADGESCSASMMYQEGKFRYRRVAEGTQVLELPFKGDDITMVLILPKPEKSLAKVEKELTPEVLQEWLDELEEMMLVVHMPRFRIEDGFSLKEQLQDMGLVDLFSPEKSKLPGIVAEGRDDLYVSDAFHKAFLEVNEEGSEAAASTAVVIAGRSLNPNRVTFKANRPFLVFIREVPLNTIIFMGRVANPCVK

[2] = Dog 1, 0 h after subcutaneous administration
[3] = Dog 1, 0.25 h after subcutaneous administration
[4] = Dog 1, 0.5 h after subcutaneous administration
[5] = Dog 1, 1 h after subcutaneous administration
[6] = Dog 1, 2 h after subcutaneous administration
[7] = Dog 1, 4 h after subcutaneous administration
[8] = Dog 1, 6 h after subcutaneous administration
[9] = Dog 1, 8 h after subcutaneous administration
[10] = Dog 1, 24 h after subcutaneous administration
[11] = Dog 1, 30 h after subcutaneous administration
[12] = Dog 1, 48 h after subcutaneous administration
[13] = Dog 2, 0 h after subcutaneous administration
[14] = Dog 2, 0.25 h after subcutaneous administration
[15] = Dog 2, 0.5 h after subcutaneous administration
[16] = Dog 2, 1 h after subcutaneous administration
[17] = Dog 2, 2 h after subcutaneous administration
[18] = Dog 2, 4 h after subcutaneous administration
[19] = Dog 2, 6 h after subcutaneous administration
[20] = Dog 2, 8 h after subcutaneous administration
[21] = Dog 2, 24 h after subcutaneous administration
[22] = Dog 2, 30 h after subcutaneous administration
[23] = Dog 2, 48 h after subcutaneous administration
[24] = Dog 3, 0 h after subcutaneous administration
[25] = Dog 3, 0.25 h after subcutaneous administration
[26] = Dog 3, 0.5 h after subcutaneous administration
[27] = Dog 3, 1 h after subcutaneous administration
[28] = Dog 3, 2 h after subcutaneous administration
[29] = Dog 3, 4 h after subcutaneous administration
[30] = Dog 3, 6 h after subcutaneous administration
[31] = Dog 3, 8 h after subcutaneous administration
[32] = Dog 3, 24 h after subcutaneous administration
[33] = Dog 3, 30 h after subcutaneous administration
[34] = Dog 3, 48 h after subcutaneous administration

| SMILES | plasma concentration [1, 2] [nM] | plasma concentration [1, 3] [nM] | plasma concentration [1, 4] [nM] | plasma concentration [1, 5] [nM] | plasma concentration [1, 6] [nM] | plasma concentration [1, 7] [nM] | plasma concentration [1, 8] [nM] | plasma concentration [1, 9] [nM] | plasma concentration [1, 10] [nM] | plasma concentration [1, 11] [nM] | plasma concentration [1, 12] [nM] | plasma concentration [1, 13] [nM] | plasma concentration [1, 14] [nM] | plasma concentration [1, 15] [nM] | plasma concentration [1, 16] [nM] | plasma concentration [1, 17] [nM] | plasma concentration [1, 18] [nM] | plasma concentration [1, 19] [nM] | plasma concentration [1, 20] [nM] | plasma concentration [1, 21] [nM] | also measured |
| --- | --- | --- | --- | --- | --- | --- | --- | --- | --- | --- | --- | --- | --- | --- | --- | --- | --- | --- | --- | --- | --- |
| CC(=O)N[C@H]1[C@@H](O[C@H]2[C@H](O)[C@@H](O)[C@H](O[C@H]3[C@H](OS(=O)(=O)O)[C@@H](NS(=O)(=O)O)[C@@H](O[C@H]4[C@H](O)[C@@H](OS(=O)(=O)O)[C@H](O[C@H]5[C@H](O)[C@@H](NS(=O)(=O)O)[C@@H](O[C@H]6[C@H](O)[C@@H](OS(=O)(=O)O)[C@H](O[C@H]7[C@H](O)C(NS(=O)(=O)O)[C@@H]8OC[C@H]7O8)O[C@H]6C(=O)O)O[C@@H]5COS(=O)(=O)O)O[C@H]4C(=O)O)O[C@@H]3COS(=O)(=O)O)O[C@@H]2C(=O)O)O[C@H](COS(=O)(=O)O)[C@@H](O[C@@H]2OC(C(=O)O)=C[C@H](O)[C@H]2O)[C@@H]1O (some centres unmarked) [ΔIIaIIsIsIs^1,6-anhydro] | 0 | 50 | 170 | 340 | 560 | 440 | 370 | 300 | 60 | 30 | 10 | 0 | 50 | 100 | 210 | 320 | 300 | 370 | 250 | 50 | plasma concentration [1, 22]: 30 nM; plasma concentration [1, 23]: 10 nM; plasma concentration [1, 24]: 0 nM; plasma concentration [1, 25]: 60 nM; plasma concentration [1, 26]: 170 nM; plasma concentration [1, 27]: 240 nM; plasma concentration [1, 28]: 340 nM; plasma concentration [1, 29]: 460 nM; plasma concentration [1, 30]: 380 nM; plasma concentration [1, 31]: 300 nM; plasma concentration [1, 32]: 50 nM; plasma concentration [1, 33]: 40 nM; plasma concentration [1, 34]: 10 nM; affinity for ATIII (ATIII): high affinity for ATIII |
| CC(=O)NC1C(OC2C(C(=O)O)OC(OC3C(COS(=O)(=O)O)OC(OC4C(C(=O)O)OC(OC5C(COS(=O)(=O)O)OC(O)C(NS(=O)(=O)O)C5O)C(OS(=O)(=O)O)C4O)C(NS(=O)(=O)O)C3OS(=O)(=O)O)C(O)C2O)OC(COS(=O)(=O)O)C(OC2OC(C(=O)O)C(OC3OC(COS(=O)(=O)O)C(OC4OC(C(=O)O)=CC(O)C4OS(=O)(=O)O)C(O)C3NS(=O)(=O)O)C(O)C2O)C1O (centres unmarked) [ΔIsIIaIIsIs] | 0 | 10 | 70 | 160 | 330 | 270 | 220 | 180 | 40 | 20 | 0 | 0 | 30 | 60 | 110 | 200 | 180 | 230 | 150 | 30 | plasma concentration [1, 22]: 20 nM; plasma concentration [1, 23]: 0 nM; plasma concentration [1, 24]: 0 nM; plasma concentration [1, 25]: 20 nM; plasma concentration [1, 26]: 90 nM; plasma concentration [1, 27]: 130 nM; plasma concentration [1, 28]: 190 nM; plasma concentration [1, 29]: 280 nM; plasma concentration [1, 30]: 230 nM; plasma concentration [1, 31]: 190 nM; plasma concentration [1, 32]: 30 nM; plasma concentration [1, 33]: 20 nM; plasma concentration [1, 34]: 0 nM; affinity for ATIII (ATIII): high affinity for ATIII |

— patent US7575930B2, “Method for analyzing oligosaccharides from blood plasma” (priority 2005, dated 2009)
